Test results published in the NIST ThermoML archive (doi:10.1021/acs.jced.7b00171).
Numbers after ± are expanded uncertainties.

Experiment: Solid-liquid equilibrium temperature
Conditions: Crystal 1, visual observation

C1CCCCC1 [cyclohexane]
Solid-liquid equilibrium temperature (1310 kPa): 280.31 ± 0.26 K | Solid-liquid equilibrium temperature (3430 kPa): 281.53 ± 0.34 K | Solid-liquid equilibrium temperature (5310 kPa): 282.52 ± 0.41 K
